Source: US20230404996A1, “APPLICATION OF ISOQUINOLINE COMPOUND IN TUMOR TREATMENT” (NANJIANG SHIJIANG MEDICINE TECHNOLOGY CO., LTD, priority 2020, published 2023)
Structures can show the parent of a compound that is named as a salt. Where two headings read alike, the source gives them in different places.

Columns and labels:
[1] = test system: NCI-H82 ov-NNMT/sh-DNMT1 tumor; test: Inhibitory effect on subcutaneous NCI-H82 ov-NNMT/sh-DNMT1 tumor in nude mice; format: in vivo; conditions: nude mice inoculated with ov-NNMT/sh-DNMT1, intraperitoneally 10 mg/kg/day, compared with NCI-H82 tumor; FIG. 15
From the text: (§1) To verify whether the cells sensitive to isoquinoline compounds still maintained the sensitivity to isoquinoline compounds in vivo, inhibitory effect of berberine hydrochloride on tumor-bearing mice subcutaneously inoculated with sensitive cells (NCI-H82) was detected.
(§2) 5×10^6 of normal NCI-H82 cells, NCI-H82 cells with overexpression of NNMT protein and […] of DNMT1 (i.e. ov-NNMT/sh-DNMT1, the method for overexpressing NNMT protein and knocking down DNMT1 expression was shown in Example 13) were subcutaneously inoculated in nude mice to establish tumor-bearing mice. Each group of tumor-bearing mice was injected intraperitoneally with the berberine hydrochloride at a dose of 10 mg/kg/day, the change of tumor volume size over time was measured, and the tumors were removed and photographed in each group of mice at the end of the experiment to investigate the inhibitory effect of berberine hydrochloride on the tumor. The mice in control group was injected intraperitoneally with solvent vehicle in the same method, and the tumor volume was calculated as follows: tumor volume=½ length×width^2.

NCI-H82 tumor = test: Inhibitory effect on subcutaneous NCI-H82 tumor in nude mice; format: in vivo; conditions: nude mice inoculated with NCI-H82, intraperitoneally 10 mg/kg/day; FIG. 14
From the text: as §1, §2

[2] = test system: NCI-H82 cell ov-NNMT/sh-DNMT1 #1 and ov-NNMT/sh-DNMT1 #2; test: Sensitivity of NCI-H82 cell after overexpression of NNMT and knockdown of DNMT1 (intracellular ATP detection); format: cell-based, human; conditions: NNMT overexpressed and DNMT1 knocked down simultaneously; FIG. 11
From the text: (§3) The NCI-H82 cell overexpressing NNMT protein was obtained by inserting the NNMT gene into NCI-1-182 cell using a viral vector. The expression of DNMT1 in NCI-H82 cells was knocked down using shRNA transfection. The changes in sensitivity of cell to isoquinoline compounds was investigated using intracellular ATP detection methods after overexpression of NNMT protein and/or knockdown of DNMT1 expression. The experiment result was shown in FIG. 11, wherein, “Vector” referred to NCI-1182 cell transfected with empty virus as control group.

SW48 = test: Cell viability (CellTiter-Glo) IC50 on tumor cell lines; format: cell-based; conditions: Homo sapiens, 72 h; SW48, 3 days of culture; read-out: Inhibitory effect on cell line (IC50)
Protocol: (§4) The inhibitory effect of isoquinoline compounds on various tumor cell lines was detected using cell activity detection reagent.
(§5) Cell viability was detected using the Promega CellTiter-Glo kit, the kit reflected cell viability by directly measuring intracellular ATP content. In this experiment, the IC50 values of isoquinoline compounds on various tumor cell lines was determined.
(§6) Tumor cells were cultured in 10% FBS-containing medium (+p/s), and incubated for 3 h or the following day, then the gradient diluted isoquinoline compound was added. After 3 days of culture, the relevant IC50 (50% inhibiting concentration) was measured. The name, source and culture conditions of each tumor cell line were as follows: • Cell line NCI-H82 (ATCC, No. HTB-175) was cultured in 10% fetal bovine serum-containing RPMI1640 medium (+P/S). • Cell line G-401 (ATCC, No. CRL-1441) was cultured in 10% fetal bovine serum-containing McCoy's 5a medium (+P/S). • Cell line MDA-MB-453 (ATCC, No. HTB-131) was cultured in 10% fetal bovine serum-containing Leibovit's L-15 medium (+P/S). • Cell line SW48 (ATCC, No. CCL-231) was cultured in 10% fetal bovine serum-containing Leibovitz's L-15 medium (+P/S). • Cell line CFPAC-1 (ATCC, No. CRL-1918) was cultured in 10% fetal bovine serum-containing IMDM medium (+P/S). • Cell line 786-O (ATCC, No. CRL-1932) was cultured in 10% fetal bovine serum-containing RPMI1640 medium (+P/S). • Cell line GB-I (JCRB, No. IFO50489) was cultured in 10% fetal bovine serum-containing DMEM medium (+P/S). • Cell line SF126 (JCRB, No. IFO50286) was cultured in 10% fetal bovine serum-containing EMEM medium (+P/S).

CFPAC-1 = test: as above; format: cell-based; conditions: Homo sapiens, 72 h; CFPAC-1, 3 days of culture; read-out: Inhibitory effect on cell line (IC50)
Protocol: as §4, §5, §6

G-401 = test: as above; format: cell-based; conditions: Homo sapiens, 72 h; G-401, 3 days of culture; read-out: Inhibitory effect on cell line (IC50)
Protocol: as §4, §5, §6

MDA-MB-453 = test: as above; format: cell-based; conditions: Homo sapiens, 72 h; MDA-MB-453, 3 days of culture; read-out: Inhibitory effect on cell line (IC50)
Protocol: as §4, §5, §6

786-O = test: as above; format: cell-based; conditions: Homo sapiens, 786-0, 72 h, 3 days of culture, read-out: Inhibitory effect on cell line (IC50)
Protocol: as §4, §5, §6

GB-1 = test: as above; format: cell-based; conditions: Homo sapiens, 72 h; GB-1, 3 days of culture; read-out: Inhibitory effect on cell line (IC50)
Protocol: as §4, §5, §6

SF-126 = test: as above; format: cell-based; conditions: Homo sapiens, 72 h; SF-126, 3 days of culture; read-out: Inhibitory effect on cell line (IC50)
Protocol: as §4, §5, §6

[3] = test system: NCI-H82 cell overexpressing NNMT protein (ov-NNMT); test: Sensitivity of NCI-H82 cell after overexpression of NNMT protein (intracellular ATP detection); format: cell-based, human; conditions: NNMT protein overexpressed alone (ov-NNMT), compared with Vector; FIG. 11
From the text: as §3

NCI-H82 = test: Cell viability (CellTiter-Glo) IC50 on tumor cell lines; format: cell-based, human; conditions: NCI-H82, 3 days of culture, read-out: Inhibitory effect on cell line (IC50)
Protocol: as §4, §5, §6

[4] = test system: NCI-H82 cell with knockdown of DNMT1 expression (sh-DNMT1 #1, sh-DNMT1 #2); test: Sensitivity of NCI-H82 cell after knockdown of DNMT1 expression (intracellular ATP detection); format: cell-based, human; conditions: DNMT1 expression knocked down (sh-DNMT1 #1 or #2), compared with Vector; FIG. 11
From the text: as §3

Kelly = test: Cell viability (CellTiter-Glo) IC50 on brain tumor cell lines; format: cell-based; conditions: 72 h, 3 days of culture, read-out: Inhibitory effect on brain tumor cell line (IC50)
Protocol: (§7) The inhibitory effect of isoquinoline compounds on various brain tumor cell lines was detected using cell activity detection reagents.
(§8) Cell viability was detected using the Promega CeliTiter-Glo kit, the kit reflected cell viability by directly measuring intracellular ATP content. In this experiment, the IC50 values of isoquinoline compounds on various brain tumor cell lines was determined.
(§9) Brain tumor cells were cultured in 10% FBS-containing medium (+p/s), and incubated for 3 h or the following day, the gradient diluted isoquinoline compound was added. After 3 days of culture, the relevant IC50 (50% inhibiting concentration) was measured. The name, source and culture conditions of each brain tumor cell line were as follows: • Cell line D341 Med (ATCC, No. HTB-187) was cultured in 20% fetal bovine serum-containing EMEM medium (+P/S). • Cell line Kelly (ECACC, No. 92110411) was cultured in RPMI1640 medium containing 10% fetal bovine serum and 2 mM glutamine; • Cell line NB-I (ATCC, No. HTB-131) was cultured in 10% fetal bovine serum-containing Leibovitz's L-15 medium (+P/S).

D341 Med = test: as above; format: cell-based; conditions: 72 h, 3 days of culture, read-out: Inhibitory effect on brain tumor cell line (IC50)
Protocol: as §7, §8, §9

NB-1 = test: as above; format: cell-based; conditions: Homo sapiens, NB1, 72 h; NB-1, 3 days of culture; read-out: Inhibitory effect on brain tumor cell line (IC50)
Protocol: as §7, §8, §9

Question: `COc1ccc2cc3[n+](cc2c1OC)CCc1cc2c(cc1-3)OCO2` [Berberine hydrochloride, reference compound] was tested. Which “Inhibitory effect on subcutaneous tumor (tumor volume)” value [1] did it give?
Answer: Its value is “significantly weaker”.

Question: And the “Inhibitory effect on subcutaneous tumor (tumor volume)” value (NCI-H82 tumor)?
Answer: Its value is “significantly inhibit”.

Question: What about the “Sensitivity of NCI-H82 tumor cells to the compound” value [2] of the same compound?
Answer: The value was “decreased more significantly”.

Question: And the IC50 (SW48)?
Answer: The IC50 was 1260 nM.

Question: What about the IC50 (CFPAC-1) of the same compound?
Answer: Its IC50 is 9.5 µM.

Question: What about the IC50 (G-401) of the same compound?
Answer: Its IC50 is 1120 nM.

Question: What about the IC50 (MDA-MB-453) of the same compound?
Answer: The IC50 was 940 nM.

Question: And the IC50 (786-O)?
Answer: Its IC50 is 15.3 µM.

Question: What about the IC50 (GB-1) of the same compound?
Answer: The IC50 was 19.6 µM.

Question: What about the IC50 (SF-126) of the same compound?
Answer: The IC50 was 21.3 µM.

Question: And the “Sensitivity of NCI-H82 cell to the compound” value [3]?
Answer: The value was “decreased”.

Question: What about the IC50 (NCI-H82; Homo sapiens, 72 h) of the same compound?
Answer: Its IC50 is 510 nM.

Question: And the “Sensitivity of NCI-H82 cell to the compound” value [4]?
Answer: The value was “decreased”.

Question: And the IC50 (Kelly)?
Answer: Its IC50 is 4100 nM.

Question: What about the IC50 (D341 Med) of the same compound?
Answer: Its IC50 is 4500 nM.

Question: What about the IC50 (NB-1) of the same compound?
Answer: Its IC50 is 1700 nM.

Question: For `c1c2c(cc3c1OCO3)-c1cc3ccc4c(c3c[n+]1CC2)OCO4` [Coptisine hydrochloride], which IC50 (SW48) is on record?
Answer: The IC50 was 6000 nM.

Question: What about the IC50 (CFPAC-1) of the same compound?
Answer: The IC50 was 22.1 µM.

Question: What about the IC50 (G-401) of the same compound?
Answer: Its IC50 is 3400 nM.

Question: And the IC50 (MDA-MB-453)?
Answer: The IC50 was 1600 nM.

Question: And the IC50 (786-O)?
Answer: The IC50 was over 30 µM.

Question: What about the IC50 (GB-1) of the same compound?
Answer: Its IC50 is 24.8 µM.

Question: What about the IC50 (SF-126) of the same compound?
Answer: Its IC50 is over 30 µM.

Question: And the IC50 (NCI-H82)?
Answer: The IC50 was 1800 nM.

Question: And the IC50 (Kelly)?
Answer: The IC50 was 4400 nM.

Question: What about the IC50 (D341 Med) of the same compound?
Answer: The IC50 was 2800 nM.

Question: And the IC50 (NB-1)?
Answer: Its IC50 is 2500 nM.

Question: What does the source list for `CCCOc1c(OC)ccc2cc3[n+](cc12)CCc1cc2c(cc1-3)OCO2` [Compound BBR-A1]?
Answer: IC50 (SW48): 200 nM; IC50 (CFPAC-1): 8.3 µM; IC50 (G-401): 1000 nM; IC50 (MDA-MB-453): 800 nM; IC50 (786-O): 16.3 µM; IC50 (GB-1): 9.1 µM; IC50 (SF-126): 7.5 µM; IC50 (NCI-H82; Homo sapiens, 72 h): 400 nM; IC50 (Kelly): 1300 nM; IC50 (D341 Med): 1000 nM; IC50 (NB-1): 300 nM

Question: How did the IC50 (SW48) turn out when `C=CCOc1c(OC)ccc2cc3[n+](cc12)CCc1cc2c(cc1-3)OCO2` [Compound BBR-A2] was run?
Answer: Its IC50 is 3200 nM.

Question: What about the IC50 (CFPAC-1) of the same compound?
Answer: Its IC50 is 14.9 µM.

Question: What about the IC50 (G-401) of the same compound?
Answer: Its IC50 is 1600 nM.

Question: And the IC50 (MDA-MB-453)?
Answer: Its IC50 is 1300 nM.

Question: And the IC50 (786-O)?
Answer: The IC50 was 37.1 µM.

Question: What about the IC50 (GB-1) of the same compound?
Answer: The IC50 was 11.2 µM.

Question: And the IC50 (SF-126)?
Answer: The IC50 was 22.6 µM.

Question: What about the IC50 (NCI-H82; Homo sapiens, 72 h) of the same compound?
Answer: The IC50 was 700 nM.

Question: And the IC50 (Kelly)?
Answer: The IC50 was 2100 nM.

Question: What about the IC50 (D341 Med) of the same compound?
Answer: Its IC50 is 1700 nM.

Question: And the IC50 (NB-1)?
Answer: Its IC50 is 600 nM.

Question: What does the source list for `Cc1c2[n+](cc3cc4c(cc13)OCO4)CCc1cc3c(cc1-2)OCO3` [worenine]?
Answer: IC50 (SW48): 9600 nM; IC50 (CFPAC-1): > 30 µM; IC50 (G-401): 2300 nM; IC50 (MDA-MB-453): 1300 nM; IC50 (786-O): > 30 µM; IC50 (GB-1): > 30 µM; IC50 (SF-126): > 30 µM; IC50 (NCI-H82; Homo sapiens, 72 h): 4300 nM; IC50 (Kelly): 3900 nM; IC50 (D341 Med): 4800 nM; IC50 (NB-1): 2600 nM

Question: What does the source list for `COc1ccc2cc3[n+](cc2c1OCC(=O)OC(C)(C)C)CCc1cc2c(cc1-3)OCO2` [Compound BBR-A5]?
Answer: IC50 (SW48): 1800 nM; IC50 (CFPAC-1): 17.7 µM; IC50 (G-401): 1100 nM; IC50 (MDA-MB-453): 700 nM; IC50 (786-O): 18.5 µM; IC50 (GB-1): 9.2 µM; IC50 (SF-126): 15.5 µM; IC50 (NCI-H82; Homo sapiens, 72 h): 500 nM; IC50 (Kelly): 1800 nM; IC50 (D341 Med): 1500 nM; IC50 (NB-1): 300 nM
